Measured values taken from article PMC1839085, “Crystal structures of an Extracytoplasmic Solute Receptor from a TRAP transporter in its open and closed forms reveal a helix-swapped dimer requiring a cation for α-keto acid binding” (BMC Structural Biology, 2007).

Target: T1, TakP (Cereibacter sphaeroides, UniProt Q3J1R2)
T1 construct: His6 (C); made in house; host or cells: E. coli BL21
Assay: Tryptophan fluorescence quenching titration of ligand binding to TakP
Set-up: species or system Rhodobacter sphaeroides
Conditions: for Binding to purified proteins from the SmoM family (qualitative): purified proteins from the SmoM (TakP) family, stated as [15] and this study, method not specified
Excerpt: We overexpressed and purified TakP from Rhodobacter sphaeroides and confirmed its ability to bind a range of α-keto acids. A general feature of ESRs is that substrate binding is accompanied by a diminished fluorescence from some tryptophan residue(s) as a result of the conformational changes induced by the binding. […] This was accompanied by a shift of the emission peak: the difference spectrum between the unliganded and liganded (quenched) protein has its maximum around 345 nm, whereas the bulk fluorescence from the unliganded form peaks at 335 nm. […] There are 10 Trp residues in the TakP sequence. From the structural information describe below, it turned out that one of these Trp residues (Trp 215) is directly interacting with the ligand when present, so that its fluorescence may be strongly quenched as a result. Two others undergo a significant displacement during the open/closed transition, which may also affect their fluorescence properties. Clearly, the observed amplitude of the fluorescence quenching caused by ligand binding (~30%) implies that these sensitive residues have for some reason a larger relative contribution to the fluorescence emission than the other tryptophans of the protein.
Because of the high binding affinity of these, we had to use a sufficiently low protein concentration to obtain an accurate determination of the dissociation constant, Kd. If the protein concentration is below the Kd, allowing the presence of a significant fraction of free substrate during the titration, the Kd can be determined from a fit of the equation:
F/F0=1−ΔF×[PL]=1−ΔF×0.5(Kd+[P0]+[L0]−(Kd+[P0]+[L0])^2−4[P0][L0]) MathType@MTEF@5@5@+=feaafiart1ev1aaatCvAUfKttLearuWrP9MDH5MBPbIqV92AaeXatLxBI9gBaebbnrfifHhDYfgasaacH8akY=wiFfYdH8Gipec8Eeeu0xXdbba9frFj0=OqFfea0dXdd9vqai=hGuQ8kuc9pgc9s8qqaq=dirpe0xb9q8qiLsFr0=vr0=vr0dc8meaabaqaciaacaGaaeqabaqabeGadaaakeaacqWGgbGrcqGGVaWlcqWGgbGrdaWgaaWcbaGaeGimaadabeaakiabg2da9iabigdaXiabgkHiTiabfs5aejabdAeagjabgEna0kabcUfaBjabdcfaqjabdYeamjabc2faDjabg2da9iabigdaXiabgkHiTiabfs5aejabdAeagjabgEna0kabicdaWiabc6caUiabiwda1maabmaabaGaem4saS0aaSbaaSqaaiabdsgaKbqabaGccqGHRaWkcqGGBbWwcqWGqbaudaWgaaWcbaGaeGimaadabeaakiabc2faDjabgUcaRiabcUfaBjabdYeamnaaBaaaleaacqaIWaamaeqaaOGaeiyxa0LaeyOeI0YaaOaaaeaacqGGOaakcqWGlbWsdaWgaaWcbaGaemizaqgabeaakiabgUcaRiabcUfaBjabdcfaqnaaBaaaleaacqaIWaamaeqaaOGaeiyxa0Laey4kaSIaei4waSLaemitaW0aaSbaaSqaaiabicdaWaqabaGccqGGDbqxcqGGPaqkdaahaaWcbeqaaiabikdaYaaakiabgkHiTiabisda0iabcUfaBjabdcfaqnaaBaaaleaacqaIWaamaeqaaOGaeiyxa0Laei4waSLaemitaW0aaSbaaSqaaiabicdaWaqabaGccqGGDbqxaSqabaaakiaawIcacaGLPaaaaaa@7441@
Here, F is the fluorescence amplitude and F0 its value in the absence of ligand. Δ F is the normalized amplitude of the saturated quenching, [PL] is the concentration of liganded protein, [P0] and [L0] are the concentrations of the total protein and ligand, respectively. The protein concentration was determined from its 280 nm absorbance and pertains here to the monomeric unit (see below).
Fluorescence spectroscopy was performed using a Varian Cary Eclipse spectrofluorimeter with an excitation wavelength of 290 nm. The emission spectra were recorded between 300 and 500 nm. Ligand binding was determined from the partial quenching of this fluorescence emission. To gain a more accurate determination of the dissociation constant, the protein concentration was lowered down to 50 nM (in 50 mM Tris/HCl, pH 7) and the amplitude of the fluorescence emission was computed from an integration of the emission over the 315 nm to 360 nm range.

T1 sequence (Q3J1R2 27-365): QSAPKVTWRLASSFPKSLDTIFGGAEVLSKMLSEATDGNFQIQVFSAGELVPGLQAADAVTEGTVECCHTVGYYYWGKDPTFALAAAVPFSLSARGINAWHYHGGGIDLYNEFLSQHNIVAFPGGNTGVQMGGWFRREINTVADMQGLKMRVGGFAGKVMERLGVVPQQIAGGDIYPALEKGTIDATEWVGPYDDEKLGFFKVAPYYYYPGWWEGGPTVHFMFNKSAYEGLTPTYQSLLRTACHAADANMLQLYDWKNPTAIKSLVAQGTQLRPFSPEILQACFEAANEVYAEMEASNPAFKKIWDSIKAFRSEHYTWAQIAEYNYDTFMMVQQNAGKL

| SMILES | Kd | other results |
| --- | --- | --- |
| CC(=O)C(=O)O [Pyruvate, pyruvate] | 270 ± 20 nM | – |
| CCC(=O)C(=O)O [Oxobutyrate, oxobutyrate] | 43 ± 4 nM | – |
| OC[C@@H](O)[C@@H](O)[C@H](O)[C@@H](O)CO [sorbitol] | – | Binding to purified proteins from the SmoM family (qualitative): neither bind |
| CCCC(=O)C(=O)O [Oxovalerate, oxovalerate] | 18 ± 3 nM | – |
| CC(C)CC(=O)C(=O)O [4-Methyl-2-Oxovalerate] | 720 ± 55 nM | – |
| O=C(O)CCC(=O)C(=O)O [α-ketoglutarate] | – | Binding to TakP (qualitative) (fluorescence quenching titration): No binding |
| OC[C@@H](O)[C@@H](O)[C@H](O)[C@H](O)CO [mannitol] | – | Binding to purified proteins from the SmoM family (qualitative): neither bind |
